Assay results reported in patent publication US12377102B2, “Compounds for the prevention and treatment of medical disorders and uses thereof” (GALECTIN SCIENCES, LLC, priority 2017, dated 2025).

What was measured:
[1] = molecular target: T1, recombinant human Gal-3 (Homo sapiens, UniProt P17931); assay: 1H-15N HSQC NMR shifts of 15N-labeled Gal-3 on compound addition; type: binding; conditions: full Gal-3
T1 construct: shifts of whole molecule of Gal-3 (Gal-3 FL); made in house; host or cells: E. coli BL21 (DE3)
T1 sequence (P17931 whole entry): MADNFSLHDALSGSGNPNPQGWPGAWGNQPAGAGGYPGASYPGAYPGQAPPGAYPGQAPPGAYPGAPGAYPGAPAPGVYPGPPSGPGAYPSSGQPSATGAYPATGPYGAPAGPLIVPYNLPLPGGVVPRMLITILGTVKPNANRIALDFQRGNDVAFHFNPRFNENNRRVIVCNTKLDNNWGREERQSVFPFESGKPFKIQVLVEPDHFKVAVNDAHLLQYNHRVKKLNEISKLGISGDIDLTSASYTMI
Experimental: Heteronuclear ^15N NMR spectroscopy was used to evaluate the interaction of compounds described herein with galectin molecules, including but not limited to Gal-3, to assess the interaction residues on the Gal-3 molecule.
NMR experiments were carried out at 30° C. on Bruker 600 MHz, 700 MHz or 850 MHz spectrometers equipped with H/C/N triple-resonance probes and x/y/z triple-axis pulse field gradient units. […] Raw data were converted and processed by using NMRPipe and were analyzed by using NMRview.

[2] = molecular target: galectin 9 interaction with integrin αMβ2 (Homo sapiens, UniProt O00182); assay: ELISA galectin 9 interaction with integrin αMβ2; type: binding; conditions: FIG. 8E
Sequence of galectin 9 interaction with integrin αMβ2 (O00182 whole entry): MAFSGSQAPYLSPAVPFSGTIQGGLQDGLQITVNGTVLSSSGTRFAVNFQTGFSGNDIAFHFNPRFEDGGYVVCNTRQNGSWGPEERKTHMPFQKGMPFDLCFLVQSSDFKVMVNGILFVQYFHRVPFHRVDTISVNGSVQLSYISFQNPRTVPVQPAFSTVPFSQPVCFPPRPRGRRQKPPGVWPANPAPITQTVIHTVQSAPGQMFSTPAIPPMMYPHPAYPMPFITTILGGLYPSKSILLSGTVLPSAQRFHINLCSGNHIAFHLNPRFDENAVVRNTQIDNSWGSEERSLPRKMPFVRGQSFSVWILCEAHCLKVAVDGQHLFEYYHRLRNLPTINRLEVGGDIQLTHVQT
Text: (§1) Activated ELISA plate is coated with αMβ2 integrin.

[3] = molecular target: Gal-3 CRD (Homo sapiens, UniProt P17931); assay: Fluorescence Polarization with fluorescein-labeled carbohydrate probe; type: binding; conditions: FITC linked lactose derivative probe
Sequence of Gal-3 CRD (P17931 whole entry): as the sequence (P17931 whole entry) above

[4] = molecular target: Gal-3 binding to Integrin αMβ2 (Homo sapiens, UniProt P17931); assay: ELISA Gal-3 binding to integrin αMβ2
Sequence of Gal-3 binding to Integrin αMβ2 (P17931 2-250 limits assumed): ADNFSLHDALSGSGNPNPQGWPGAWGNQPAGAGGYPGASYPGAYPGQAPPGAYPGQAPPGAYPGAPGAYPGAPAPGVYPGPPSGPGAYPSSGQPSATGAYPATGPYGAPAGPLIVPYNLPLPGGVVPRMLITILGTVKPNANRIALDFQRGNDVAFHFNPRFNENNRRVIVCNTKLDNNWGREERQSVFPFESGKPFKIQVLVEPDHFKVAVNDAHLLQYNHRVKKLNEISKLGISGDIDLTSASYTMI
Text: Illustrations of functional assays with Gal-3 binding pairing specific antibody with a Glycoprotein ligand, e.g. Gal-3 Binding-Protein (Gal-3 BP), Integrins, etc. (FIGS. 7A and 7B).
as §1

[5] = molecular target: galectin 1 interaction with integrin αMβ2 (Homo sapiens, UniProt P09382); assay: ELISA galectin 1 interaction with integrin αMβ2; type: binding; conditions: FIG. 8E
Sequence of galectin 1 interaction with integrin αMβ2 (P09382 2-135 limits assumed): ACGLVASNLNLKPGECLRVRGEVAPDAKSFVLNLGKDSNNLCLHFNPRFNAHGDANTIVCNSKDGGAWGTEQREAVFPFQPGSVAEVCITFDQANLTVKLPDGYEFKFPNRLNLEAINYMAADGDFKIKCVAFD

[6] = molecular target: Gal-3 binding to IGF-R1 (gene IGF1R) (Homo sapiens, UniProt P17931); assay: ELISA Gal-3 binding to Insulin Like Growth Factor 1 Receptor; conditions: FIGS. 12G-1 to 12G-3
Sequence of Gal-3 binding to IGF-R1 (gene IGF1R) (P17931 2-250 limits assumed): as the sequence (P17931 2-250 limits assumed) above
Experimental: Using the ELISA composition assay described herein, in which the compounds were incubated with Gal-3 and the binding of Gal-3 with IGF-Receptor was tested.

Compound	interaction with amino-acids located in the CRD site (HSQC NMR) [1]	inhibition of galectin 9 interaction with integrin αMβ2 [2]	Fluorescent Polarization inhibition signal [3]	specificity for Gal-3 vs other galectins (1, 8, 9) ([4]; ELISA with integrin αMβ2, FIGS. 8D and 8E)	inhibition of Integrin αMβ2 interaction with Gal-3 ([4]; ELISA, FIGS. 8B, 8C, 12C)	inhibition of galectin 1 interaction with integrin αMβ2 [5]	effect on Gal-3 binding to IGF-R1 [6]
OC[C@H]1O[C@@H](S[C@@H]2O[C@H](CO)[C@H](O)[C@H](n3cc(-c4cccc(F)c4)nn3)[C@H]2O)[C@H](O)[C@@H](n2cc(-c3cccc(F)c3)nn2)[C@H]1O [TD-139]	create disturbances of amino-acid located in the CRD site	inhibited	strong signal	non-specific interaction	inhibition	inhibited	cause inhibition
Cc1ccc(COc2ccc(C=C3CCn4c3nc(=O)c3ccccc34)cc2)cc1 [AGS-0144, 3-({4-[(4-methylphenyl)methoxy]phenyl}methylidene)-1H,2H,3H,5H-pyrrolo[1,2-a]quinazolin-5-one]	have not directly interact with these amino-acids						
